Source: US12281080B2, “Quinoline-based compounds and methods of inhibiting CDK8/19” (University of South Carolina, priority 2018, dated 2025)

Experiments:
[1] = target: ABL1(F317I)-phosphorylated (Homo sapiens (Human), UniProt P00519, F317I); test: KINOMEscan scanMAX; format: binding; settings: 2000 nM; read-out: Percent Control
[2] = target: ABL1(M351T)-phosphorylated (Homo sapiens (Human), UniProt P00519, M351T); test: KINOMEscan scanMAX; format: binding; settings: 2000 nM; read-out: Percent Control
ARK5 (NUAK1) = ARK5 (NUAK1) (Homo sapiens (Human), UniProt O60285); test: KINOMEscan scanMAX; format: binding; settings: 2000 nM; read-out: Percent Control
AXL = AXL (Homo sapiens (Human), UniProt P30530); test: KINOMEscan scanMAX; format: binding; settings: 2000 nM; read-out: Percent Control
CDC2L2 = CDC2L2 (Homo sapiens (Human), UniProt Q9UQ88); test: KINOMEscan scanMAX; format: binding; settings: 2000 nM; read-out: Percent Control
DCAMKL1 (DCLK1) = DCAMKL1 (DCLK1) (Homo sapiens (Human), UniProt O15075); test: KINOMEscan scanMAX; format: binding; settings: 2000 nM; read-out: Percent Control
DCAMKL3 (DCLK3) = DCAMKL3 (DCLK3) (Homo sapiens (Human), UniProt Q9C098); test: KINOMEscan scanMAX; format: binding; settings: 2000 nM; read-out: Percent Control
DMPK2 (CDC42BPG) = DMPK2 (CDC42BPG) (Homo sapiens (Human), UniProt Q6DT37); test: KINOMEscan scanMAX; format: binding; settings: 2000 nM; read-out: Percent Control
EGFR(T790M) = EGFR(T790M) (Homo sapiens (Human), UniProt P00533, T790M); test: KINOMEscan scanMAX; format: binding; settings: 2000 nM; read-out: Percent Control
EPHA1 = EPHA1 (Homo sapiens (Human), UniProt P21709); test: KINOMEscan scanMAX; format: binding; settings: 2000 nM; read-out: Percent Control
IRAK1 = IRAK1 (Homo sapiens (Human), UniProt P51617); test: KINOMEscan scanMAX; format: binding; settings: 2000 nM; read-out: Percent Control
IRAK4 = IRAK4 (Homo sapiens (Human), UniProt Q9NWZ3); test: KINOMEscan scanMAX; format: binding; settings: 2000 nM; read-out: Percent Control
LATS1 = LATS1 (Homo sapiens (Human), UniProt O95835); test: KINOMEscan scanMAX; format: binding; settings: 2000 nM; read-out: Percent Control
MARK1 = MARK1 (Homo sapiens (Human), UniProt Q9P0L2); test: KINOMEscan scanMAX; format: binding; settings: 2000 nM; read-out: Percent Control
MEK5 (MAP2K5) = MEK5 (MAP2K5) (Homo sapiens (Human), UniProt Q13163); test: KINOMEscan scanMAX; format: binding; settings: 2000 nM; read-out: Percent Control
MST1R = MST1R (Homo sapiens (Human), UniProt Q04912); test: KINOMEscan scanMAX; format: binding; settings: 2000 nM; read-out: Percent Control
MYLK2 = MYLK2 (Homo sapiens (Human), UniProt Q9H1R3); test: KINOMEscan scanMAX; format: binding; settings: 2000 nM; read-out: Percent Control
NEK2 = NEK2 (Homo sapiens (Human), UniProt P51955); test: KINOMEscan scanMAX; format: binding; settings: 2000 nM; read-out: Percent Control
NEK6 = NEK6 (Homo sapiens (Human), UniProt Q9HC98); test: KINOMEscan scanMAX; format: binding; settings: 2000 nM; read-out: Percent Control
p38-gamma (MAPK12) = p38-gamma (MAPK12) (Homo sapiens (Human), UniProt P53778); test: KINOMEscan scanMAX; format: binding; settings: 2000 nM; read-out: Percent Control
PAK3 = PAK3 (Homo sapiens (Human), UniProt O75914); test: KINOMEscan scanMAX; format: binding; settings: 2000 nM; read-out: Percent Control
PFTAIRE2 (CDK15) = PFTAIRE2 (CDK15) (Homo sapiens (Human), UniProt Q96Q40); test: KINOMEscan scanMAX; format: binding; settings: 2000 nM; read-out: Percent Control
PIK3CA(C420R) = PIK3CA(C420R) (Homo sapiens (Human), UniProt P42336, C420R); test: KINOMEscan scanMAX; format: binding; settings: 2000 nM; read-out: Percent Control
PRKCQ = PRKCQ (Homo sapiens (Human), UniProt Q04759); test: KINOMEscan scanMAX; format: binding; settings: 2000 nM; read-out: Percent Control
PRKG2 = PRKG2 (Homo sapiens (Human), UniProt Q13237); test: KINOMEscan scanMAX; format: binding; settings: 2000 nM; read-out: Percent Control
SRMS = SRMS (Homo sapiens (Human), UniProt Q9H3Y6); test: KINOMEscan scanMAX; format: binding; settings: 2000 nM; read-out: Percent Control
SRPK3 = SRPK3 (Homo sapiens (Human), UniProt Q9UPE1); test: KINOMEscan scanMAX; format: binding; settings: 2000 nM; read-out: Percent Control
TIE1 = TIE1 (Homo sapiens (Human), UniProt P35590); test: KINOMEscan scanMAX; format: binding; settings: 2000 nM; read-out: Percent Control
TNK1 = TNK1 (Homo sapiens (Human), UniProt Q13470); test: KINOMEscan scanMAX; format: binding; settings: 2000 nM; read-out: Percent Control
TTK = TTK (Homo sapiens (Human), UniProt P33981); test: KINOMEscan scanMAX; format: binding; settings: 2000 nM; read-out: Percent Control
WEE2 = WEE2 (Homo sapiens (Human), UniProt P0C1S8); test: KINOMEscan scanMAX; format: binding; settings: 2000 nM; read-out: Percent Control
CDK8/19 = test: Wash-off assay, MYC and JUN expression in 293 cells (QPCR); format: cell-based, human; settings: 1 μM for 2 hours, then wash-off; MYC and JUN
Method: RNA was extracted at different time points after wash-off (up to 24 hrs) and expression of MYC and JUN genes that are CDK8/19-dependent in these cells was measured by QPCR. […] In contrast, after Senexin C treatment and wash-off, the effects of Senexin C were largely retained for at least 6 hrs after wash-off.

[3] = Metabolic stability in human hepatocytes; format: in vitro ADME; settings: 2 μM, 37° C.
C4-2 xenografts = test: PSA mRNA in C4-2 xenografts in mice; format: in vivo; settings: 40 mg/kg orally daily for 4 days, male NcrNU mice
Method: (§1) CDK8/19 inhibition decreases the expression of certain androgen-receptor (AR) inducible genes including PSA, the most common marker of prostate cancer, and the growth of castration-refractory prostate cancers (CRPC). The in vivo effects of Senexin C on PSA expression by C4-2 cells were analyzed after treatment of male NcrNU mice bearing C4-2 xenografts (grouped based on tumor sizes) for 4 days at 40 mg/kg administered orally daily.

[4] = Serum and tumor PK at study endpoint, C4-2 xenografts; format: in vivo, mice; settings: 6-7 hours post last dose, 40 mg/kg orally daily for 4 days
Method: as §1

CDK8 = CDK8 (Homo sapiens (Human), UniProt P49336); test: DiscoverX Kd assay
Chain of CDK8 (P49336 whole entry): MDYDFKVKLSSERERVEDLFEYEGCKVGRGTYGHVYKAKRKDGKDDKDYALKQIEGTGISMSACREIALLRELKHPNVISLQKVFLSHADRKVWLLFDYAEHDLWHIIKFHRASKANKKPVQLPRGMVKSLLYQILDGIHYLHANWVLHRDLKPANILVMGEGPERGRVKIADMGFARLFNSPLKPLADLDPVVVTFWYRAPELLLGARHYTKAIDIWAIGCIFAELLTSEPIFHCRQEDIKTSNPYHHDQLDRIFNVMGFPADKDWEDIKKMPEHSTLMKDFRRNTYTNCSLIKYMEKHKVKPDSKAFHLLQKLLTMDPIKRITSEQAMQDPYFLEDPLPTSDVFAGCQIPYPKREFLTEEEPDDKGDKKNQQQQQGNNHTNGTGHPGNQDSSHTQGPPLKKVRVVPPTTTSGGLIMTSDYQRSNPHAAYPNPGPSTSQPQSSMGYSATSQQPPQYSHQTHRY

Chain of NEK2 (P51955 whole entry): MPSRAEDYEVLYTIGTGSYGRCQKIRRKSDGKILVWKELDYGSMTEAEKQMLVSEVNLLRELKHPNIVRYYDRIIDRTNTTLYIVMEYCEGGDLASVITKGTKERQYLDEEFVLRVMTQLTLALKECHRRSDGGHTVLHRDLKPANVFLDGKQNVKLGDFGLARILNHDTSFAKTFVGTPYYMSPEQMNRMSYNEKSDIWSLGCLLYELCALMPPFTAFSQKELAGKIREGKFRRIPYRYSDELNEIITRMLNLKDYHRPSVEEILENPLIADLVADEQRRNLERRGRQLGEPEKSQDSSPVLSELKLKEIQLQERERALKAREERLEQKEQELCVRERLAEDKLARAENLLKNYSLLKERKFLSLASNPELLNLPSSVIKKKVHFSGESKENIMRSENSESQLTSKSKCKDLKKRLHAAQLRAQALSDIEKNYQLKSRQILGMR
Chain of TIE1 (P35590 22-1138): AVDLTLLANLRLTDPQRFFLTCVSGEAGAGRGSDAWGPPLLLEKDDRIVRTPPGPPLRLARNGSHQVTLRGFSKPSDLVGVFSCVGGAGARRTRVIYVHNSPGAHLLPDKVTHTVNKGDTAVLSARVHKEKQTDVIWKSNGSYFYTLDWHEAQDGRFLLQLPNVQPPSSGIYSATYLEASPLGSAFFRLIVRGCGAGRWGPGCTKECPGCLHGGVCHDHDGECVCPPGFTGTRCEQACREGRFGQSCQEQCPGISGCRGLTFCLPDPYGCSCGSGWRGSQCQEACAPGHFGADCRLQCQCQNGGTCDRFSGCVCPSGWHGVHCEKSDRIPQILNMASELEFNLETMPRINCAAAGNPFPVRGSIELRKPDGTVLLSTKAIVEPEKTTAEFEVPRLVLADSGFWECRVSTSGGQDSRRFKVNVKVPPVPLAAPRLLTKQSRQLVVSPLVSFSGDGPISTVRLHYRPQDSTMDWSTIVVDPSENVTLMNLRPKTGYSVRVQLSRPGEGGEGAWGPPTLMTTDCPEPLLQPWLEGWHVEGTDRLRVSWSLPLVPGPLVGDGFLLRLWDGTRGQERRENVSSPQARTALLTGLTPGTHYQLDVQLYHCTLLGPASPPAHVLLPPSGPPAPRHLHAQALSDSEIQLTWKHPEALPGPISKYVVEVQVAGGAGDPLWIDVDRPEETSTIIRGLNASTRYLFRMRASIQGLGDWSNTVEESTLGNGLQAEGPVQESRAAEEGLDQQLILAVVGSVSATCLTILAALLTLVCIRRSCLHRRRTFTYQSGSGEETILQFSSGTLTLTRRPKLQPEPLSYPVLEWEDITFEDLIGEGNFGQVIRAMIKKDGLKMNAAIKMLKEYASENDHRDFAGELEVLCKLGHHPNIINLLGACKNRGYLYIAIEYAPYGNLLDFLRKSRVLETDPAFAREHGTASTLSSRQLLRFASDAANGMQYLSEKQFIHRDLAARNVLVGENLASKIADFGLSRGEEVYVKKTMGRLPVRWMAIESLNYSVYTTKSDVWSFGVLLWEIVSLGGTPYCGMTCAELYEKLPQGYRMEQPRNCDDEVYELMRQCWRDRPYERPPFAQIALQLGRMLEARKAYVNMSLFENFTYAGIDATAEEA
Chain of IRAK4 (Q9NWZ3 whole entry): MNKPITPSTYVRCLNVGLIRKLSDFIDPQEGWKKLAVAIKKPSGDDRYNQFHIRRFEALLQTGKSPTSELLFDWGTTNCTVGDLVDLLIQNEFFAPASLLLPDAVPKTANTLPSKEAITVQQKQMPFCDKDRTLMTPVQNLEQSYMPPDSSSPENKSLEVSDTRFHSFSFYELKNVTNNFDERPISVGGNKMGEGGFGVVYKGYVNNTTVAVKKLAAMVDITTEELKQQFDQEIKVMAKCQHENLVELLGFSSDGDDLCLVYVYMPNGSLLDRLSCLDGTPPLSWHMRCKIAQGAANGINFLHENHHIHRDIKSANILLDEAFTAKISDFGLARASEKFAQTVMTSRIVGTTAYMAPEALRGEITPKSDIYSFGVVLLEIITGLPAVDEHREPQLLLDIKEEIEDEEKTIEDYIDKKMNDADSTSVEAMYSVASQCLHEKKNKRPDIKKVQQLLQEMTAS
Chain of DCAMKL3 (DCLK3) (Q9C098 whole entry, looked up): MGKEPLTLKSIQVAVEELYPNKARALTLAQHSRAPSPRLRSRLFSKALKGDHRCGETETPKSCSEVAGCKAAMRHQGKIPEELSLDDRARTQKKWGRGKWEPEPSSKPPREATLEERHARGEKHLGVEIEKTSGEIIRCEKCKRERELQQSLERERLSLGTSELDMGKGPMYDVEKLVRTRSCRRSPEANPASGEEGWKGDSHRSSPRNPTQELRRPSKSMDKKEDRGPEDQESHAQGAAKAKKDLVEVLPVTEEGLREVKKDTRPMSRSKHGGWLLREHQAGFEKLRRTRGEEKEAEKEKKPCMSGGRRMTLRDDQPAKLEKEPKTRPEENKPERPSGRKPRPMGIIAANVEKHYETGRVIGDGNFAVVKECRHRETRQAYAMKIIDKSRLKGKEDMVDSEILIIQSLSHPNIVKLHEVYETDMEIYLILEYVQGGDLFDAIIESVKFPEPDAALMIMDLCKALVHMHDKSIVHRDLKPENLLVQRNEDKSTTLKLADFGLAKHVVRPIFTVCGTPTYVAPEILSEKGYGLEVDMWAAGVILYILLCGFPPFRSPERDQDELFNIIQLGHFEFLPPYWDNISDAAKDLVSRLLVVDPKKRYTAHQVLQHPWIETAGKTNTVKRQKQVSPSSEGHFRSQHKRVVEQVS
Chain of NEK6 (Q9HC98 whole entry): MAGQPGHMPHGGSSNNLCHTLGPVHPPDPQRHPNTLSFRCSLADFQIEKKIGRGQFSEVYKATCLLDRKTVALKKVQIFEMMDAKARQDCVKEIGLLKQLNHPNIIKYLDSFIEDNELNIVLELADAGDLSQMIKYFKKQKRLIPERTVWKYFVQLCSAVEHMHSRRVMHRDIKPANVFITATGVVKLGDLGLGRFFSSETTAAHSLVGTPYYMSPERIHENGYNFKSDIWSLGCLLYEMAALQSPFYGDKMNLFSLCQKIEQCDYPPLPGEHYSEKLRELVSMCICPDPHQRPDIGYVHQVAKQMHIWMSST
Chain of DMPK2 (CDC42BPG) (Q6DT37 whole entry): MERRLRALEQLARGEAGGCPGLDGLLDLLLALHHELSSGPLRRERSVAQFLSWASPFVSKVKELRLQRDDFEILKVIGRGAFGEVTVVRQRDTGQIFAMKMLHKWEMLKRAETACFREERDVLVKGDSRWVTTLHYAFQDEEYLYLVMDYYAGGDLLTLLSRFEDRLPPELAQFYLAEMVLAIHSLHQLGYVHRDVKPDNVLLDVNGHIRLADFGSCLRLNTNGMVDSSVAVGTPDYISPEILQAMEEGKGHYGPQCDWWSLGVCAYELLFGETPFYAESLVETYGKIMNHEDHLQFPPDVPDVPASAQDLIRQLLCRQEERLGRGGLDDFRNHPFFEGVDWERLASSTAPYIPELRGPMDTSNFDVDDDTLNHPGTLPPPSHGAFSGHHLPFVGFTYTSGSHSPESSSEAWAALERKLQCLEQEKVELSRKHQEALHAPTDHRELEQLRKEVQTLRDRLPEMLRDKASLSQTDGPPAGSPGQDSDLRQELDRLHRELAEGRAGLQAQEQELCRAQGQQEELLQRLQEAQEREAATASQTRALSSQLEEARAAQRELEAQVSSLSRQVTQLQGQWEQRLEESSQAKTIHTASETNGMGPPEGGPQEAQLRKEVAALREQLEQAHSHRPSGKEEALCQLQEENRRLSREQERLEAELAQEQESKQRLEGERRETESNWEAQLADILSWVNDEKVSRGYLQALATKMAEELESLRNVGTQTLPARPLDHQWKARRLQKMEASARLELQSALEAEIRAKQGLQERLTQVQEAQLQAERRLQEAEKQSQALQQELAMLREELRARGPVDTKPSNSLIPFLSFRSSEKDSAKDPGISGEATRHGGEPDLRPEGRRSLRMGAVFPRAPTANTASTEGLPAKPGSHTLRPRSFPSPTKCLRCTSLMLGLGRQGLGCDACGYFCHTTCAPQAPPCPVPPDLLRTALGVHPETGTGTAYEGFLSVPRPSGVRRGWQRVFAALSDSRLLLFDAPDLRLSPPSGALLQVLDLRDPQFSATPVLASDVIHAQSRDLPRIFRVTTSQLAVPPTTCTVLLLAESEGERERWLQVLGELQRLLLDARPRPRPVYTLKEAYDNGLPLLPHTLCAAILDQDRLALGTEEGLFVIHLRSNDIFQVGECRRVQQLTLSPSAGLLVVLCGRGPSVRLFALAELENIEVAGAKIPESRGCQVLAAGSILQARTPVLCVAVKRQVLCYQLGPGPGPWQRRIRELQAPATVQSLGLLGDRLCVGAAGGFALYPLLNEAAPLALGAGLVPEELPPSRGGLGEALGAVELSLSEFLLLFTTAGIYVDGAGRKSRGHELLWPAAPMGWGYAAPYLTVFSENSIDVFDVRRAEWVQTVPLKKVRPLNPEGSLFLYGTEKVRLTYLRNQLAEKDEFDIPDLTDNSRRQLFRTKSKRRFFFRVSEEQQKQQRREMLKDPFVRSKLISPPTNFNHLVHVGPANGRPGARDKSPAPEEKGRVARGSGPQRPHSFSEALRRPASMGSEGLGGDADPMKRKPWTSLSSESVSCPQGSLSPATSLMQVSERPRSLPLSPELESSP

Compound: CN1CCN(C(=O)c2ccc3cc(CCNc4ccnc5ccc(C#N)cc45)ccc3c2)CC1 [compound 6148, 4-((2-(6-(4-methylpiperazine-1-carbonyl)naphthalen-2-yl)ethyl)amino)quinoline-6-carbonitrile]
- remaining binding at 2 µM [1]: 89%
- remaining binding at 2 µM [2]: 80%
- remaining binding at 2 µM (ARK5 (NUAK1)): 89%
- remaining binding at 2 µM (AXL): 95%
- remaining binding at 2 µM (CDC2L2): 97%
- remaining binding at 2 µM (DCAMKL1 (DCLK1)): 63%
- remaining binding at 2 µM (DCAMKL3 (DCLK3)): 96%
- remaining binding at 2 µM (DMPK2 (CDC42BPG)): 83%
- remaining binding at 2 µM (EGFR(T790M)): 93%
- remaining binding at 2 µM (EPHA1): 93%
- remaining binding at 2 µM (IRAK1): 45%
- remaining binding at 2 µM (IRAK4): 67%
- remaining binding at 2 µM (LATS1): 76%
- remaining binding at 2 µM (MARK1): 81%
- remaining binding at 2 µM (MEK5 (MAP2K5)): 63%
- remaining binding at 2 µM (MST1R): 100%
- remaining binding at 2 µM (MYLK2): 91%
- remaining binding at 2 µM (NEK2): 100%
- remaining binding at 2 µM (NEK6): 93%
- remaining binding at 2 µM (p38-gamma (MAPK12)): 100%
- remaining binding at 2 µM (PAK3): 98%
- remaining binding at 2 µM (PFTAIRE2 (CDK15)): 100%
- remaining binding at 2 µM (PIK3CA(C420R)): 73%
- remaining binding at 2 µM (PRKCQ): 100%
- remaining binding at 2 µM (PRKG2): 84%
- remaining binding at 2 µM (SRMS): 75%
- remaining binding at 2 µM (SRPK3): 96%
- remaining binding at 2 µM (TIE1): 85%
- remaining binding at 2 µM (TNK1): 95%
- remaining binding at 2 µM (TTK): 72%
- remaining binding at 2 µM (WEE2): 95%
- Time effects largely retained after wash-off (CDK8/19): at least 6 hrs
- Metabolic conversion rate in cultured hepatocytes [3]: greatly decreased relative to Senexin B
- PSA mRNA levels in the tumor (C4-2 xenografts): strongly decreased
- Drug concentration in tumor tissues vs serum [4]: higher Senexin C drug concentration in tumor tissues
- Kd (CDK8): 55 nM
